The results in this text go back to patent publication US11433090B2, “mTOR-inhibitor-containing medicine for treating or preventing ophthalmic symptoms, disorders, or diseases, and application thereof” (The Doshisha, priority 2017, dated 2022).

In one series the test system is cleaved caspase 3. Put plainly: Western blot of cleaved caspase 3 after TGF-β2 stimulation in iFECD. As to conditions: 3 pmol mTOR siRNA, then TGF-β2 10 ng/ml 24 h, FIG. 8. The format is cell-based, human. The procedure: (§1) The medium was removed from a culture dish in which iFECDs were being cultured, and the cells were supplemented with 1×PBS (−) that was preheated to 37° C., and were washed. This was repeated twice. The cells were supplemented again with 1×PBS (−) and incubated for 3 minutes at 37° C. (5% CO2). After removing the PBS (−), the cells were supplemented with 0.05% Trypsin-EDTA (Nacalai Tesque, 32778-34) and incubated for 5 minutes at 37° C. (5% CO2). The cells were then suspended in a medium, and collected by centrifugation at 1500 rpm for 3 minutes. DMEM (Nacalai Tesque, 08456-36)+10% FBS (Biowest, S1820-500)+1% P/S (Nacalai Tesque, 26252-94) was used as the medium.
iFECDs were seeded on a 12-well plate at a ratio of 1×10^5 cells per well and cultured for 24 hours at 37° C. (5% CO2) (DMEM+10% FBS+1% P/S was used as the medium). After 24 hours, the medium was removed. Rapamycin was added to culture the cells for 24 hours. (DMEM+2% FBS+1% P/S was used as the medium). After 24 hours, the medium was removed. A medium containing 10 ng/ml of Recombinant Human TGF-β2 (Wako, 200-19911) and rapamycin was added to culture the cells for 24 hours. […]
8 μg of the extracted protein was separated by SDS-PAGE and transferred onto a nitrocellulose membrane. […] The detected band strength was analyzed with a lumino image analyzer LAS-4000 mini (Fuji Film) and ImageQuant™ software (GE Healthcare). […]
Background: A western blot detects proteins with antibodies after separation by electrophoresis.

The next series relates to fibronectin. The series can be described thus: Western blot of fibronectin production induced by TGF-β2 in iFECD. It is filed as cell-based, human. The settings on record: 3 pmol mTOR siRNA, then TGF-β2 10 ng/ml 24 h, FIG. 9. As to the method:
as §1
iFECDs were seeded on a 6-well plate at a ratio of 2×10^5 cells per well and cultured for 24 hours at 37° C. (5% CO2) (DMEM+10% FBS+1% P/S was used as the medium). After 24 hours, the medium was removed. Rapamycin was added to culture the cells for 24 hours. (DMEM+2% FBS+1% P/S was used as the medium). After 24 hours, the medium was removed. A medium containing 10 ng/ml of Recombinant Human TGF-β2 (Wako, 200-19911) and rapamycin was added to culture the cells for 24 hours. […]
5 μg of the extracted protein was separated by SDS-PAGE and transferred onto a nitrocellulose membrane. […] The detected band strength was analyzed with a lumino image analyzer LAS-4000 mini (Fuji Film) and ImageQuant™ software (GE Healthcare). […]

On to “mTOR siRNA: siRNA against mTOR gene (Ambion, AS026M0L); sense strand SEQ ID NO: 1, antisense strand SEQ ID NO: 2 (sense CAUUCGCAUUCAGUCCAUATT; antisense UAUGGACUGAAUGCGAAUGAT; chemistry not given here)”, for which the “activated form of cleaved caspase-3 (about 17 kDa), western blot” value in the series on cleaved caspase 3 was “hardly observed”. The “production of fibronectin induced by TGF-β2, western blot” value in the series on fibronectin is given as “hardly observed”.
